Measurements taken from the supplement of paper PMC10307832.

What was measured:
Test in all cases: relative viability (nuclei count vs DMSO), 5 days (fraction); higher = more cells survive
201T = system: 201T
Summary of the method: (§1)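 Values are medians from duplicate plates. Each reflects relative viability, defined as the nuclei count of treated wells over that of vehicle wells. Lung cancer cell lines in 1536-well plates were pin-tool dosed one day after seeding with one drug alone or with a fixed anchor-drug dose plus five library-drug doses (not always all listed) in √10 steps, then fixed, stained and imaged at 4× after 5 days.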

COR-L 105 = system: COR-L 105
Summary of the method: as §1

COR-L23 = system: COR-L23
Summary of the method: as §1

EMC-BAC-2 = system: EMC-BAC-2
Summary of the method: as §1

HCC-15 = system: HCC-15
Summary of the method: as §1

HCC-366 = system: HCC-366
Summary of the method: as §1

LC-2-ad = system: LC-2-ad
Summary of the method: as §1

NCI-H1395 = system: NCI-H1395
Summary of the method: as §1

NCI-H1437 = system: NCI-H1437
Summary of the method: as §1

NCI-H1755 = system: NCI-H1755
Summary of the method: as §1

NCI-H1792 = system: NCI-H1792
Summary of the method: as §1

NCI-H1793 = system: NCI-H1793
Summary of the method: as §1

NCI-H1915 = system: NCI-H1915
Summary of the method: as §1

NCI-H2009 = system: NCI-H2009
Summary of the method: as §1

NCI-H2023 = system: NCI-H2023
Summary of the method: as §1

NCI-H2347 = system: NCI-H2347
Summary of the method: as §1

NCI-H23 = system: NCI-H23
Summary of the method: as §1

PC-14 = system: PC-14
Summary of the method: as §1

SK-MES-1 = system: SK-MES-1
Summary of the method: as §1

SMILES: CCNC(=O)c1noc(-c2cc(C(C)C)c(O)cc2O)c1-c1ccc(CN2CCOCC2)cc1 [Luminespib] + CC1(C)CCC(c2ccc(Cl)cc2)=C(CN2CCN(c3ccc(C(=O)NS(=O)(=O)c4ccc(N[C@H](CCN5CCOCC5)CSc5ccccc5)c(S(=O)(=O)C(F)(F)F)c4)cc3)CC2)C1 [Navitoclax] (partner 0.5 µM)
- relative viability (201T; first compound 0.002 µM): 1.17
- relative viability (201T; first compound 0.006325 µM): 1.18
- relative viability (201T; first compound 0.02 µM): 1.13
- relative viability (201T; first compound 0.06325 µM): 1.15
- relative viability (201T; first compound 0.2 µM): 1.18
- relative viability (COR-L 105; first compound 0.002 µM): 0.729
- relative viability (COR-L 105; first compound 0.006325 µM): 0.696
- relative viability (COR-L 105; first compound 0.02 µM): 1.12
- relative viability (COR-L 105; first compound 0.06325 µM): 0.278
- relative viability (COR-L 105; first compound 0.2 µM): 0.234
- relative viability (COR-L23; first compound 0.002 µM): 1.14
- relative viability (COR-L23; first compound 0.006325 µM): 0.885
- relative viability (COR-L23; first compound 0.02 µM): 1
- relative viability (COR-L23; first compound 0.06325 µM): 0.0758
- relative viability (COR-L23; first compound 0.2 µM): 0.0617
- relative viability (EMC-BAC-2; first compound 0.002 µM): 1.15
- relative viability (EMC-BAC-2; first compound 0.006325 µM): 1.09
- relative viability (EMC-BAC-2; first compound 0.02 µM): 1.12
- relative viability (EMC-BAC-2; first compound 0.06325 µM): 1.16
- relative viability (EMC-BAC-2; first compound 0.2 µM): 1.13
- relative viability (HCC-15; first compound 0.002 µM): 0.647
- relative viability (HCC-15; first compound 0.006325 µM): 0.708
- relative viability (HCC-15; first compound 0.02 µM): 0.755
- relative viability (HCC-15; first compound 0.06325 µM): 0.44
- relative viability (HCC-15; first compound 0.2 µM): 0.419
- relative viability (HCC-366; first compound 0.002 µM): 1.11
- relative viability (HCC-366; first compound 0.006325 µM): 0.981
- relative viability (HCC-366; first compound 0.02 µM): 0.966
- relative viability (HCC-366; first compound 0.06325 µM): 0.0276
- relative viability (HCC-366; first compound 0.2 µM): 0.0215
- relative viability (LC-2-ad; first compound 0.002 µM): 0.41
- relative viability (LC-2-ad; first compound 0.006325 µM): 0.483
- relative viability (LC-2-ad; first compound 0.02 µM): 0.516
- relative viability (LC-2-ad; first compound 0.06325 µM): 0.0848
- relative viability (LC-2-ad; first compound 0.2 µM): 0.126
- relative viability (NCI-H1395; first compound 0.002 µM): 1.42
- relative viability (NCI-H1395; first compound 0.006325 µM): 1.16
- relative viability (NCI-H1395; first compound 0.02 µM): 0.949
- relative viability (NCI-H1395; first compound 0.06325 µM): 0.407
- relative viability (NCI-H1395; first compound 0.2 µM): 0.338
- relative viability (NCI-H1437; first compound 0.002 µM): 1.06
- relative viability (NCI-H1437; first compound 0.006325 µM): 1.07
- relative viability (NCI-H1437; first compound 0.02 µM): 1.16
- relative viability (NCI-H1437; first compound 0.06325 µM): 0.318
- relative viability (NCI-H1437; first compound 0.2 µM): 0.128
- relative viability (NCI-H1755; first compound 0.002 µM): 0.981
- relative viability (NCI-H1755; first compound 0.006325 µM): 0.959
- relative viability (NCI-H1755; first compound 0.02 µM): 0.973
- relative viability (NCI-H1755; first compound 0.06325 µM): 0.971
- relative viability (NCI-H1755; first compound 0.2 µM): 0.933
- relative viability (NCI-H1792; first compound 0.002 µM): 0.535
- relative viability (NCI-H1792; first compound 0.006325 µM): 0.497
- relative viability (NCI-H1792; first compound 0.02 µM): 0.539
- relative viability (NCI-H1792; first compound 0.06325 µM): 0.32
- relative viability (NCI-H1792; first compound 0.2 µM): 0.216
- relative viability (NCI-H1793; first compound 0.002 µM): 0.517
- relative viability (NCI-H1793; first compound 0.006325 µM): 0.374
- relative viability (NCI-H1793; first compound 0.02 µM): 0.293
- relative viability (NCI-H1793; first compound 0.06325 µM): 0.137
- relative viability (NCI-H1793; first compound 0.2 µM): 0.122
- relative viability (NCI-H1915; first compound 0.002 µM): 0.8
- relative viability (NCI-H1915; first compound 0.006325 µM): 0.793
- relative viability (NCI-H1915; first compound 0.02 µM): 0.803
- relative viability (NCI-H1915; first compound 0.06325 µM): 0.808
- relative viability (NCI-H1915; first compound 0.2 µM): 0.775
- relative viability (NCI-H2009; first compound 0.002 µM): 1.17
- relative viability (NCI-H2009; first compound 0.006325 µM): 1.08
- relative viability (NCI-H2009; first compound 0.02 µM): 1.21
- relative viability (NCI-H2009; first compound 0.06325 µM): 0.72
- relative viability (NCI-H2009; first compound 0.2 µM): 0.0895
- relative viability (NCI-H2023; first compound 0.002 µM): 0.969
- relative viability (NCI-H2023; first compound 0.006325 µM): 1.11
- relative viability (NCI-H2023; first compound 0.02 µM): 0.99
- relative viability (NCI-H2023; first compound 0.06325 µM): 0.0933
- relative viability (NCI-H2023; first compound 0.2 µM): 0.0995
- relative viability (NCI-H2347; first compound 0.002 µM): 0.794
- relative viability (NCI-H2347; first compound 0.02 µM): 0.483
- relative viability (NCI-H2347; first compound 0.06325 µM): 0.764
- relative viability (NCI-H2347; first compound 0.2 µM): 0.275
- relative viability (NCI-H23; first compound 0.002 µM): 1.08
- relative viability (NCI-H23; first compound 0.006325 µM): 0.793
- relative viability (NCI-H23; first compound 0.02 µM): 0.625
- relative viability (NCI-H23; first compound 0.06325 µM): 0.142
- relative viability (NCI-H23; first compound 0.2 µM): 0.13
- relative viability (PC-14; first compound 0.002 µM): 0.996
- relative viability (PC-14; first compound 0.006325 µM): 0.945
- relative viability (PC-14; first compound 0.02 µM): 1.17
- relative viability (PC-14; first compound 0.06325 µM): 0.0977
- relative viability (PC-14; first compound 0.2 µM): 0.128
- relative viability (SK-MES-1; first compound 0.002 µM): 1.27
- relative viability (SK-MES-1; first compound 0.006325 µM): 1.24
- relative viability (SK-MES-1; first compound 0.02 µM): 1.28
- relative viability (SK-MES-1; first compound 0.06325 µM): 0.149
- relative viability (SK-MES-1; first compound 0.2 µM): 0.131
